Measurements taken from patent US20060128997A1, “New method for the preparation of 1,5-bis(4-hydroxy-3-metoxy-phenyl)-penta-1,4-dien-3-one and derivatives with antitumoral properties” (priority 2003, published 2006).
Several values for one entry are separate records, joined by “and”; a condition that tells them apart may be missing. Equal entries are not always repeated. Entries after “also recorded” stand apart in the source; their conditions may differ. Where two headings read alike, the source gives them in different places.

Columns and labels:
[1] = Acute toxicity test (LD50, body weight, deaths); assay type: in vivo, albinic swiss mouses; conditions: for Initial Weight, Average ± dpm / Initial Weight, single animal: beginning of the test; for Final Weight, Average ± dpm / Final Weight, single animal: ending of the test
Method: Also a toxicological test with the sample denominated 37 compound (Acute Toxicity, LD50, via intraperitoneal).
Methodology utilized to perform the toxicological tests:
10 albinic swiss mouses are used, of the male gender, weighting approximately 25 g, for each of the treated groups and control;
Adaptation period: the animals are maintained in the tests room at least for 07 days before the beginning of the essay;
The animals are submitted to fast 12 hours before administering the test substance, done by gavage, at the time the animal's body weight is listed.
After the administration the animals are maintained in observation for a minimum period of 14 days.
The number of death animals for each one of the doses is listed and the LD50 is assessed by Litchfield and Wilcoxon's (1949) method and the animal's body weight is listed at the end of the acute toxicity test.

[2] = test system: UACC62 (Melanoma); test: Antiproliferate test in tumoral human cells, sulforrodamina B essay; assay type: cell-based
Method: (§1) Methodology utilized to perform the antitumoral tests:
(§2) Report of the Antiproliferate Test in Tumoral Human Cells with the Sulforrodamina B Essay
(§3) The cell lines used in the essays, described in the table 1, were maintained in recipients of 25 cm^2 (Nunc®), with 5 mL of culture medium RPMI 1640 supplemented with 5% bovine foetal serum (RPMI/SFB), at 37° C. in atmosphere of 5% of CO2 and 100% of humidity.
(§4) […] of cells in medium RPMI/SFB with 50 μg/mL of Gentamicin were inoculated in its respectives densities of inoculation, in plates of 96 compartments and incubated for 24 hours at 37° C. in atmosphere of 5% of CO2 and 100% of humidity.
(§5) After 24 hours, […] of the test substance were added in the following concentrations of 250; 25; 2.5; 0.2 μg/mL diluted in RPMI/SFB/gentamicin. In this moment the reading of one plate was performed for the determination of the T0 (cell control in the moment of the adding the samples). The other plates were incubated for 48 hours After this period the experiment was paused by adding the trichlorine acetic acid to further determine the protein content by means of […] essay with the sulforrodamina B.
(§6) The stocked solutions were developed by diluting the samples in dimethyl sulfoxide (DMSO) in the concentration of 0.1 g/mL. That solution was diluted by 400 times in RPMI/SFB/gentamicina to be added in the plates of 96 compartments being obtained so the a ideal concentration of DMSO (Skehan e cols. 1990).
(§7) At the end of the test, the plates of 96 compartments were centrifuged for 3 minutes at 2000 rpm, and they were fixed with 50 μL of a solution at 50% of trichloroacetic acid (TCA) at 4° C. To complete the cellular fixation, the plates were incubated for 1 hour at 4° C.
(§8) The plates were submitted to four consecutive washes with distillated water to remore the residues of TCA, medium, SFB and secondary metabolic and maintained at room temperature until the complete drying.
(§9) A coloration was performed by the adding of 50 μL SRB at 0.4% (weight/volume) diluted in acetic acid at 1%, and maintained at 4° C. for 30 minutes. Further, they were washed by 4 consecutive times with a solution of acetic acid 1%. The residue of the washing of the solution was removed and the plates were dried again at room temperature. The colorant linked to the cellular protein was diluted with a solution of Trizma Base (Sigma®) in concentration of […] and pH 10.5 for 5 minutes in ultrasonic bath. The spectrophotometric of absorbancy reading was performed in 560 nm in a micro plates lector (Labsystems Labsystems Multiskan® MCC/340).
(§10) The absorbancy averages were assessed having discounted its respective nulls and by means of the formula shown below was determined the growth inhibition (IC) of each tested sample.
(§11) If T≧T0 but <C, the drug was cytostatic and the formula used is 100×[(T−To)/(C−T0)]
(§12) If T<T0 the drug was cytotoxic and the formula used is […]
(§13) Considering that T is the absorbency average of the treated cell C is the cell control and T0 is the cell control in the addition day.
(§14) The obtained result was subtracted from 100% so obtaining the percentage of growth inhibition. The samples were considered actives since they presented growth inhibition dependant dose higher than 50% and selective lineage, that is, the preferential activity for only one type of tumoral cell or with cytostatic and/or killer cell effect well distinguished among the cell lines.
(§15) All the assays were performed in triplicates so that the presented results make reference to a representative experiment. The standard deflection from the average was always lower than 5%.

[3] = test system: NCIADR (Mamma tumor which expresses the phenotype resistance against multiple drugs); test: as above; assay type: cell-based; conditions: for growth inhibition of the Mama NCI-ADR cell line, in words: resistance against multiple drugs
Method: as §1, §2, §3, §4, §5, §6, §7, §8, §9, §10, §11, §12, §13, §14, §15

[4] = test system: MCF7 (Normal mamma tumor); test: as above; assay type: cell-based
Method: as §1, §2, §3, §4, §5, §6, §7, §8, §9, §10, §11, §12, §13, §14, §15

[5] = test system: NCI460 (Lung tumor); test: as above; assay type: cell-based
Method: as §1, §2, §3, §4, §5, §6, §7, §8, §9, §10, §11, §12, §13, §14, §15

[6] = test system: all cell lines (nine different types of human cancer); test: Antiproliferate test, sulforrodamina B essay, whole panel of cell lines; assay type: cell-based; conditions: for cytostatic / antiproliferate activity (growth inhibition), in words / concentration from which cytostatic activity (growth inhibition) is presented: all cell lines; for concentration from which cytotoxic / killer cell activity (cellular death) is presented: all cell lines of the panel; for selectivity for the studied cell lines, in words: panel of cell lines
Method: as §1, §2, §3, §4, §5, §6, §7, §8, §9, §10, §11, §12, §13, §14, §15

[7] = cited from earlier work
[8] = test system: K-562 (Leukemia); test: Antiproliferate test in tumoral human cells, sulforrodamina B essay; assay type: cell-based; conditions: K562
Method: as §1, §2, §3, §4, §5, §6, §7, §8, §9, §10, §11, §12, §13, §14, §15

[9] = test system: 786-0 (Renal tumor); test: as above; assay type: cell-based
Method: as §1, §2, §3, §4, §5, §6, §7, §8, §9, §10, §11, §12, §13, §14, §15

[10] = test system: HT29 (Colon tumor); test: as above; assay type: cell-based; conditions: HT-29
Method: as §1, §2, §3, §4
After 24 hours, […] of the test substance were added in the following concentrations of 250; 25; 2.5; 0.2 μg/mL diluted in RPMI/SFB/gentamicin. In this moment the reading of one plate was performed for the determination of the T0 (cell control in the moment of the adding the samples). […]
A coloration was performed by the adding of 50 μL SRB at 0.4% (weight/volume) diluted in acetic acid at 1%, and maintained at 4° C. for 30 minutes. […] The spectrophotometric of absorbancy reading was performed in 560 nm in a micro plates lector (Labsystems Labsystems Multiskan® MCC/340).
The absorbancy averages were assessed having discounted its respective nulls and by means of the formula shown below was determined the growth inhibition (IC) of each tested sample. […]

[11] = test system: OVCAR-3 (Ovary tumor); test: as above; assay type: cell-based
Method: as §1, §2, §3, §4, §5, §6, §7, §8, §9, §10, §11, §12, §13, §14, §15

[12] = test system: PC-3 (Prostate tumor); test: as above; assay type: cell-based; conditions: PC-03
Method: as §1, §2, §3, §4, §5, §6, §7, §8, §9, §10, §11, §12, §13, §14, §15

COc1cc(C=CC(=O)C=Cc2ccc(O)c(OC)c2)ccc1O [Compound 37, 1,5-bis(4-hydroxy-3-methoxyphenyl)-penta-1,4-dien-3-one]
Deaths (n), single animal ([1]; 2.5 g/Kg via intraperitoneal): 0 | Initial Weight, Average ± dpm ([1]; 2.5 g/Kg via intraperitoneal): 24.60 ± 2.51 g | Initial Weight, single animal ([1]; 2.5 g/Kg via intraperitoneal): 24.5 g and 25.4 g (2×) and 24.1 g and 26.6 g and 24.8 g and 22.5 g and 29.7 g and 22.4 g and 20.6 g | Final Weight, Average ± dpm ([1]; 2.5 g/Kg via intraperitoneal): 27.88 g | Final Weight, single animal ([1]; 2.5 g/Kg via intraperitoneal): 26.4 g and 28.0 g and 28.6 g and 27.4 g and 29.0 g and 27.8 g and 25.0 g and 31.2 g and 25.4 g and 22.8 g | Deaths (n), single animal ([1]; 3.0 g/Kg via intraperitoneal): 0 (9×) and 1 | Initial Weight, Average ± dpm ([1]; 3.0 g/Kg via intraperitoneal): 25.47 ± 2.43 g | Initial Weight, single animal ([1]; 3.0 g/Kg via intraperitoneal): 28.3 g and 30.9 g and 24.6 g and 25.4 g and 25.1 g and 23.2 g and 23.6 g (2×) and 26.0 g and 24.0 g | Final Weight, Average ± dpm ([1]; 3.0 g/Kg via intraperitoneal): 27.81 g | Final Weight, single animal ([1]; 3.0 g/Kg via intraperitoneal): 30.3 g and 32.5 g and 25.9 g and 28.0 g and 27.9 g and 25.6 g and 26.0 g and 25.8 g and 28.3 g and Death | Deaths (n), single animal ([1]; 4.0 g/Kg via intraperitoneal): 0 (9×) and 1 | Initial Weight, Average ± dpm ([1]; 4.0 g/Kg via intraperitoneal): 26.41 ± 3.52 g | Initial Weight, single animal ([1]; 4.0 g/Kg via intraperitoneal): 29.8 g and 25.5 g and 33.2 g and 25.9 g and 26.3 g and 28.9 g and 26.7 g and 23.3 g (2×) and 21.2 g | Final Weight, Average ± dpm ([1]; 4.0 g/Kg via intraperitoneal): 28.98 g | Final Weight, single animal ([1]; 4.0 g/Kg via intraperitoneal): 32.5 g and 26.9 g and 35.9 g and 28.9 g and 29.0 g and 30.2 g and 28.0 g and 25.9 g and 23.5 g and Death | Deaths (n), single animal ([1]; 5.0 g/Kg via intraperitoneal): 0 (8×) and 1 (2×) | Initial Weight, Average ± dpm ([1]; 5.0 g/Kg via intraperitoneal): 23.68 ± 1.42 g | Initial Weight, single animal ([1]; 5.0 g/Kg via intraperitoneal): 24.9 g and 21.0 g and 25.4 g and 22.2 g and 24.0 g and 23.8 g and 22.5 g and 23.5 g and 24.2 g and 25.3 g | Final Weight, Average ± dpm ([1]; 5.0 g/Kg via intraperitoneal): 25.86 g | Final Weight, single animal ([1]; 5.0 g/Kg via intraperitoneal): 25.9 g (2×) and 24.0 g and 27.8 g and 25.6 g and 27.0 g and 25.8 g and 24.9 g and Death (2×) | toxicity classification according to Loomis, in words ([1]; from LD50 (5.0-15 g/Kg = practically nontoxic)): practically nontoxic | LD50 at 14 days ([1]; male, Swiss albino, mouse, in vivo, ip, acute toxicity, via intraperitoneal, linear regression, 14 days of observation): 8540 mg/kg | concentration with cytotoxic activity (cellular death) [2]: ≥ 0.25 µg/mL | concentration with cytotoxic activity (cellular death) [3]: ≥ 0.25 µg/mL | growth inhibition of the Mama NCI-ADR cell line, in words ([3]; listed as 37/01): strong cytostatic activity | growth inhibition of the Mama NCI-ADR cell line, in words ([3]; listed as our product): inhibited the growth | concentration with cytotoxic activity (cellular death) [4]: ≥ 0.25 µg/mL | concentration with cytotoxic activity (cellular death) [5]: ≥ 0.25 µg/mL | cytostatic / antiproliferate activity (growth inhibition), in words [6]: cytostatic activity (growth inhibition) for all cell lines | concentration from which cytotoxic / killer cell activity (cellular death) is presented [6]: ≥ 0.25 µg/mL | cytostatic / antiproliferate activity (growth inhibition), in words ([6]; listed as 37/01): cytostatic activity (growth inhibition) in the concentrations evaluated

COc1cccc2c1C(=O)c1c(O)c3c(c(O)c1C2=O)C[C@@](O)(C(=O)CO)C[C@@H]3O[C@H]1C[C@H](N)[C@H](O)[C@H](C)O1 [Doxorubicin, reference compound]
toxicity, in words ([7]; in vivo): extremely toxic | LD50 ([7]; species and route not given): 20 mg/kg | growth inhibition of the Mama NCI-ADR cell line, in words [3]: does not inhibit the growth; also recorded: did not inhibit the growth

COc1cc(C=CC(=O)C=Cc2ccc(OC(C)=O)c(OC)c2)ccc1OC(C)=O [EHB1, 1,5-bis(3-metoxy-4-acetoxyphenyl)-penta-1,4-dien-3-one]
growth inhibition ([3]; NCI-ADR cell line, concentration not clearly stated (from 25 μg/mL)): around 25% | concentration from which cytostatic activity (growth inhibition) is presented [6]: ≥ 0.25 µg/mL | concentration from which cytotoxic / killer cell activity (cellular death) is presented [6]: ≥ 25 µg/mL | selectivity for the studied cell lines, in words [6]: not selective

COc1cc(C=CC(=O)C=Cc2ccc(OCC=C(C)C)c(OC)c2)ccc1OCC=C(C)C [HB6, 1,5-Bis[3-metoxy-4-(3-methyl-but-2-eniloxy)phenyl]-penta-1,4-dien-3-one]
concentration with cytotoxic activity (cellular death) [8]: 250 µg/mL | concentration with cytotoxic activity (cellular death) ([3]; NCIADR): 250 µg/mL | concentration with cytotoxic activity (cellular death) [9]: 250 µg/mL | concentration from which cytostatic activity (growth inhibition) is presented [6]: ≥ 25 µg/mL | selectivity for the studied cell lines, in words [6]: cellular selectivity for HT-29 and 786-0 cell lines | concentration with cytotoxic activity (cellular death) [10]: 250 µg/mL

COc1ccc(C=CC(=O)C=Cc2ccc(OC)c(OC)c2)cc1OC [HBM1, 1,5-Bis(3,4-dimetoxyphenyl)-penta-1,4-dien-3-one]
concentration with cytotoxic activity (cellular death) [11]: 250 µg/mL | concentration with cytotoxic activity (cellular death) [12]: 250 µg/mL | concentration from which cytostatic activity (growth inhibition) is presented [6]: ≥ 0.25 µg/mL
